# Data: US20080096967A1, “Formulations for Injection of Catecholic Butanes, Including Ndga Compounds, Into Animals” (priority 2005, published 2008)
# Test: Solubility of M4N in water-insoluble lipids (visual inspection)
# Assay type: physicochemical
# Settings: for solutions stable: corn oil; for stable at room temperature: sesame oil
smiles,measurement,setting,value
"COc1ccc(C[C@@H](C)[C@@H](C)Cc2ccc(OC)c(OC)c2)cc1OC [Formulation M4N, meso-1,4-bis(3,4-dimethoxyphenyl)-2,3-dimethylbutane]",Stability Time at Room Temperature,"33% Peppermint Oil, 33% Tween ® 20, 33% PEG 400, M4N 60 mg/mL",>3 days
same,Dissolution After Heating,"33% Peppermint Oil, 33% Tween ® 20, 33% PEG 400, M4N 60 mg/mL, 40° C.",Y at 40 °C
same,Dissolution After Heating,"40% Peppermint Oil, 40% PEG 400, 20% Glycerol, M4N 52 mg/mL, 40° C.",Y at 40 °C
same,Dissolution After Heating,"45% Peppermint Oil, 45% PEG 400, 10% Glycerol, M4N 59 mg/mL, 40° C.",Y at 40 °C
same,Stability Time at Room Temperature,"50% Peppermint Oil, 50% PEG 300, M4N 40 mg/mL",>7 days
same,Dissolution After Heating,"50% Peppermint Oil, 50% PEG 300, M4N 40 mg/mL, 35° C.",Y at 35 °C
same,Stability Time at Room Temperature,"50% Peppermint Oil, 50% PEG 300, M4N 60 mg/mL",>7 days
same,Dissolution After Heating,"50% Peppermint Oil, 50% PEG 300, M4N 60 mg/mL, 35° C.",Y at 35 °C
same,Dissolution After Heating,"50% Peppermint Oil, 50% PEG 300, M4N 125 mg/mL, 35° C.",Y at 35 °C
same,Stability Time at Room Temperature,"50% Peppermint Oil, 50% PEG 400, M4N 40 mg/mL",>7 days
same,Dissolution After Heating,"50% Peppermint Oil, 50% PEG 400, M4N 40 mg/mL, 40° C.",Y at 40 °C
same,Stability Time at Room Temperature,"50% Peppermint Oil, 50% PEG 400, M4N 60 mg/mL",>7 days
same,Dissolution After Heating,"50% Peppermint Oil, 50% PEG 400, M4N 60 mg/mL, 40° C.",Y at 40 °C
same,Dissolution After Heating,"50% Peppermint Oil, 50% PEG 400, M4N 100 mg/mL, 40° C.",Y at 40 °C
same,Dissolution After Heating,"50% Peppermint Oil, 50% PEG 400, M4N 125 mg/mL, 40° C.",Y at 40 °C
same,Stability Time at Room Temperature,"50% Peppermint Oil, 50% Sesame Oil, M4N 20 mg/mL",>3 days
same,Stability Time at Room Temperature,"50% Peppermint Oil, 50% Sesame Oil, M4N 40 mg/mL",>3 days
same,Dissolution After Heating,"50% Peppermint Oil, 50% Sesame Oil, M4N 40 mg/mL, 40° C.",Y at 40 °C
same,Stability Time at Room Temperature,"50% Peppermint Oil, 50% Sesame Oil, M4N 60 mg/mL",>3 days
same,Dissolution After Heating,"50% Peppermint Oil, 50% Sesame Oil, M4N 60 mg/mL, 40° C.",Y at 40 °C
same,Stability Time at Room Temperature,"50% Peppermint Oil, 50% Tween ® 20, M4N 40 mg/mL",>3 days
same,Dissolution After Heating,"50% Peppermint Oil, 50% Tween ® 20, M4N 40 mg/mL, 40° C.",Y at 40 °C
same,Stability Time at Room Temperature,"50% Peppermint Oil, 50% Tween ® 20, M4N 60 mg/mL",>3 days
same,Dissolution After Heating,"50% Peppermint Oil, 50% Tween ® 20, M4N 60 mg/mL, 40° C.",Y at 40 °C
same,Dissolution After Heating,"50% Peppermint Oil, 50% Tween ® 20, M4N 125 mg/mL, 40° C.",Y at 40 °C
same,Stability Time at Room Temperature,"60% Peppermint Oil, 40% PEG 300, M4N 60 mg/mL",>3 days
same,Dissolution After Heating,"60% Peppermint Oil, 40% PEG 300, M4N 60 mg/mL, 40° C.",Y at 40 °C
same,Dissolution After Heating,"60% Peppermint Oil, 40% PEG 400, M4N 60 mg/mL, 40° C.",Y at 40 °C
same,Stability Time at Room Temperature,"75% Sesame Oil, 9% Tween ® 20, 16% Glycerol, M4N 24.3 mg/mL",<7 days
same,Dissolution After Heating,"75% Sesame Oil, 9% Tween ® 20, 16% Glycerol, M4N 24.3 mg/mL, 60° C.",Y at 60 °C
same,Dissolution After Heating,"80% Olive Oil, 20% Soybean Oil, M4N 60 mg/mL, 70° C.",Y at 70 °C
same,Dissolution After Heating,"85% Sesame Oil, 15% Tween ® 20, M4N 40 mg/mL, 45° C.",Y at 45 °C
same,Dissolution After Heating,"85% Sesame Oil, 15% Tween ® 20, M4N 60 mg/mL, 55° C.",Y at 55 °C
same,solution upon cooling,"85% sesame oil and 15% Tween® 20, M4N 60 mg/mL (55° C.) and 40 mg/mL (45° C.)",did not stay in solution
same,Stability Time at Room Temperature,"89% Sesame Oil, 11% Tween ® 20, M4N 29 mg/mL",>7 days
same,Dissolution After Heating,"89% Sesame Oil, 11% Tween ® 20, M4N 29 mg/mL, 60° C.",Y at 60 °C
same,Stability Time at Room Temperature,"100% Corn Oil, M4N 1 mg/mL",>3 days
same,Dissolution After Heating,"100% Corn Oil, M4N 1 mg/mL, 60° C.",Y at 60 °C
same,Stability Time at Room Temperature,"100% Corn Oil, M4N 10 mg/mL",>3 days
same,Dissolution After Heating,"100% Corn Oil, M4N 10 mg/mL, 60° C.",Y at 60 °C
same,Stability Time at Room Temperature,"100% Corn Oil, M4N 20 mg/mL",<3 days
same,Dissolution After Heating,"100% Corn Oil, M4N 20 mg/mL, 60° C.",Y at 60 °C
same,Stability Time at Room Temperature,"100% Corn Oil, M4N 40 mg/mL",<3 days
same,Dissolution After Heating,"100% Corn Oil, M4N 40 mg/mL, 60° C.",Y at 60 °C
same,Stability Time at Room Temperature,"100% Corn Oil, M4N 50 mg/mL",<3 days
same,Dissolution After Heating,"100% Corn Oil, M4N 50 mg/mL, 60° C.",Y at 60 °C
same,Stability Time at Room Temperature,"100% Corn Oil, M4N 60 mg/mL",<1 days
same,Dissolution After Heating,"100% Corn Oil, M4N 60 mg/mL, 60° C.",Y at 60 °C
same,Dissolution After Heating,"100% Corn Oil, M4N 100 mg/mL, 60° C.",Y at 60 °C
same,Stability Time at Room Temperature,"100% Mineral Oil, M4N 10 mg/mL",>7 days
same,Dissolution After Heating,"100% Mineral Oil, M4N 10 mg/mL, 60° C.",Y at 60 °C
same,Stability Time at Room Temperature,"100% Mineral Oil, M4N 50 mg/mL",<1 days
same,Dissolution After Heating,"100% Mineral Oil, M4N 50 mg/mL, 60° C.",Y at 60 °C
same,Dissolution After Heating,"100% Mineral Oil, M4N 100 mg/mL, 60° C.",Y at 60 °C
same,Dissolution After Heating,"100% Mineral Oil, M4N 200 mg/mL, 60° C.",Y at 60 °C
same,Dissolution After Heating,"100% Olive Oil, M4N 30 mg/mL, 60° C.",Y at 60 °C
same,Stability Time at Room Temperature,"100% Sesame Oil, M4N 10 mg/mL",>3 days
same,Stability Time at Room Temperature,"100% Sesame Oil, M4N 20 mg/mL",>3 days
same,Dissolution After Heating,"100% Sesame Oil, M4N 20 mg/mL, 60° C.",Y at 60 °C
same,Stability Time at Room Temperature,"100% Sesame Oil, M4N 30 mg/mL",<3 days
same,Dissolution After Heating,"100% Sesame Oil, M4N 30 mg/mL, 60° C.",Y at 60 °C
same,Stability Time at Room Temperature,"100% Sesame Oil, M4N 50 mg/mL",<1 days
same,Dissolution After Heating,"100% Sesame Oil, M4N 50 mg/mL, 60° C.",Y at 60 °C
same,Stability Time at Room Temperature,"100% Soybean Oil, M4N 10 mg/mL",>7 days
same,Dissolution After Heating,"100% Soybean Oil, M4N 10 mg/mL, 60° C.",Y at 60 °C
same,Dissolution After Heating,"100% Soybean Oil, M4N 30 mg/mL, 60° C.",Y at 60 °C
same,Dissolution After Heating,"100% Soybean Oil, M4N 50 mg/mL, 60° C.",Y at 60 °C
same,Stability Time at Room Temperature,"Peppermint Oil, M4N 1 mg/mL",>3 days
same,Stability Time at Room Temperature,"Peppermint Oil, M4N 10 mg/mL",>3 days
same,Stability Time at Room Temperature,"Peppermint Oil, M4N 20 mg/mL",>3 days
same,Stability Time at Room Temperature,"Peppermint Oil, M4N 40 mg/mL",>3 days
same,Dissolution After Heating,"Peppermint Oil, M4N 40 mg/mL, 40° C.",Y at 40 °C
same,Stability Time at Room Temperature,"Peppermint Oil, M4N 60 mg/mL",<3 days
same,Dissolution After Heating,"Peppermint Oil, M4N 60 mg/mL, 40° C.",Y at 40 °C
same,Stability Time at Room Temperature,"Peppermint Oil, M4N 100 mg/mL",<1 days
same,Dissolution After Heating,"Peppermint Oil, M4N 100 mg/mL, 40° C.",Y at 40 °C
same,Stability Time at Room Temperature,"Peppermint Oil, M4N 125 mg/mL",<1 days
same,Dissolution After Heating,"Peppermint Oil, M4N 125 mg/mL, 40° C.",Y at 40 °C
same,Stability Time at Room Temperature,"Sesame Oil, Tween ® 20 and Glycerol: 10% Oil emulsion in 90% saline, M4N 2.4 mg/mL",<1 days
same,solutions stable,M4N 60 mg/mL,less than 1 day
same,solutions stable,M4N 1 and 10 mg/mL,greater than 3 days
same,solutions stable,"M4N 20, 40 and 50 mg/mL",less than 3 days
same,solution after cooling,"olive oil, M4N 30 mg/mL, soluble at 60° C.",did not remain in solution after cooling
same,stable at room temperature,M4N 10 mg/mL and 20 mg/mL,more than 3 days
same,stable at room temperature,M4N 30 mg/mL,less than 3 days
